Data from US10093623B2, “Cyclic amides as MetAP-2 inhibitors” (MERCK PATENT GmbH, priority 2012, dated 2018).

Target: MetAP-2 (Homo sapiens, UniProt P50579)
Experiment: MetAP-2 activity measurement (coupled enzymatic reactions, Met-Arg-Ser substrate, dianisidine detection at 450 nm)
Assay type: biochemical
Conditions: Inhibition of MetAP-2; read-out: IC50 enzyme
How it was run: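 Coupled continuous assay with Met-Arg-Ser tripeptide substrate: released methionine oxidised by L-amino acid oxidase to give H2O2, which peroxidase uses to oxidise dianisidine, followed at 450 nm. Activity taken as slope of absorbance versus time over the visually linear region; dianisidine extinction coefficient converts to mol Met per time.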

Sequence of MetAP-2 (P50579 whole entry, species assumed): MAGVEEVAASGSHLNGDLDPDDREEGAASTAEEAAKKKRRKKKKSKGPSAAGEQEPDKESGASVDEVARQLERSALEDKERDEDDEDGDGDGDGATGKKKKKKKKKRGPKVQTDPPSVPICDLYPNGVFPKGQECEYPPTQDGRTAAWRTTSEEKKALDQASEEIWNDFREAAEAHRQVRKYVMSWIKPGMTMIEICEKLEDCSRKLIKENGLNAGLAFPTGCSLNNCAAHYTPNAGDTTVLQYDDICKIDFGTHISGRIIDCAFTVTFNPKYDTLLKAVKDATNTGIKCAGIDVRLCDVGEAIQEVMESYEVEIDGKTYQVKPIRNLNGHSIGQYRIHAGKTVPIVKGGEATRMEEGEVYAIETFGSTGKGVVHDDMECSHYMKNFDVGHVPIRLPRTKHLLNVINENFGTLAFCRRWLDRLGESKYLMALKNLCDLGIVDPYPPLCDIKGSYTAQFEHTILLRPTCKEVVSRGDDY

Row | Structure (SMILES) | IC50 [nM]
1 | CN(c1cccc(N2CC[C@@](O)(C(=O)NCc3cc(F)cc(Cl)c3)C2=O)c1)S(C)(=O)=O [A166, N-(3-Chloro-5-fluorobenzyl)-(R)-3-hydroxy-1-[3-(methane-sulfonylmethylamino)phenyl]-2-oxopyrrolidine-3-carboxamide] | 1000 to 10000
2 | CCC(=O)Nc1ccc(N2CC[C@@](O)(C(=O)NCc3cc(F)cc(Cl)c3)C2=O)cn1 [A172, N-(3-Chloro-5-fluorobenzyl)-(R)-3-hydroxy-2-oxo-1-(6-propionylaminopyridin-3-yl)-pyrrolidine-3-carboxamide] | 1000 to 10000
3 | CC(=O)Nc1ccc(N2CCC(O)(C(=O)NCc3cc(F)cc(F)c3)C2=O)cn1 (stereo not drawn) [A176, N-(3,5-Difluorobenzyl)-1-(6-acetylaminopyridin-3-yl)-3-hydroxy-2-oxopyrrolidine-3-carboxamide] | 10 to 1000
4 | NC(=O)c1cccc(N2CCC(O)(C(=O)NCCc3cccc(F)c3)C2=O)c1 (stereo not drawn) [A177, N-[2-(3-Fluorophenyl)ethyl]-1-(3-carbamoylphenyl)-3-hydroxy-2-oxopyrrolidine-3-carboxamide] | 10 to 1000
5 | NC(=O)c1cccc(N2CCC(O)(C(=O)NCc3cc(F)cc(F)c3)C2=O)c1 (stereo not drawn) [A178, N-(3,5-Difluorobenzyl)-1-(3-carbamoylphenyl)-3-hydroxy-2-oxopyrrolidine-3-carboxamide] | 10 to 1000
6 | NC(=O)c1cccc(N2CCC(O)(C(=O)NCCc3ccccc3F)C2=O)c1 (stereo not drawn) [A179, N-[2-(2-Fluorophenyl)ethyl]-1-(3-carbamoylphenyl)-3-hydroxy-2-oxopyrrolidine-3-carboxamide] | 10 to 1000
7 | O=C(NCc1cc(F)cc(Cl)c1)C1(O)CCN(c2cnn(C3CCNCC3)c2)C1=O (stereo not drawn) [A180, N-(3-Chloro-5-fluorobenzyl)-3-hydroxy-2-oxo-1-(1-piperidin-4-yl-1H-pyrazol-4-yl)pyrrolidine-3-carboxamide] | 10 to 1000
8 | COc1ccc(CN2CC[C@](O)(C(=O)NCc3cc(F)cc(Cl)c3)C2=O)cc1 [A181, N-(3-Chloro-5-fluorobenzyl)-(S)-3-hydroxy-1-(4-methoxybenzyl)-2-oxopyrrolidine-3-carboxamide] | 10 to 1000
9 | COc1ccc(CN2CC[C@@](O)(C(=O)NCc3cc(F)cc(Cl)c3)C2=O)cc1 [A182, N-(3-Chloro-5-fluorobenzyl)-(R)-3-hydroxy-1-(4-methoxybenzyl)-2-oxopyrrolidine-3-carboxamide] | > 10000
10 | O=C1CCc2cc(N3CCC(O)(C(=O)NCCc4cccc(F)c4)C3=O)ccc2N1 (stereo not drawn) [A183, N-[2-(3-Fluorophenyl)ethyl]-3-hydroxy-2-oxo-1-(2-oxo-1,2,3,4-tetrahydroquinolin-6-yl)-pyrrolidine-3-carboxamide] | 10 to 1000
11 | O=C1CCc2cc(N3CCC(O)(C(=O)NCCc4ccccc4F)C3=O)ccc2N1 (stereo not drawn) [A184, N-[2-(2-Fluorophenyl)ethyl]-3-hydroxy-2-oxo-1-(2-oxo-1,2,3,4-tetrahydroquinolin-6-yl)-pyrrolidine-3-carboxamide] | 10 to 1000
12 | CC(=O)Nc1ccc(N2CCC(O)(C(=O)NCc3cccc(F)c3Cl)C2=O)cn1 (stereo not drawn) [A186, N-(2-Chloro-3-fluorobenzyl)-1-(6-acetylaminopyridin-3-yl)-3-hydroxy-2-oxopyrrolidine-3-carboxamide] | 10 to 1000
13 | O=C(CN1CCC(O)(C(=O)NCc2cc(F)cc(Cl)c2)C1=O)Nc1ccccc1 (stereo not drawn) [A187, N-(3-Chloro-5-fluorobenzyl)-3-hydroxy-2-oxo-1-phenyl-carbamoylmethylpyrrolidine-3-carboxamide] | 1000 to 10000
14 | CC(=O)Nc1ccc(N2CCC(O)(C(=O)NCCc3cc(F)cc(F)c3)C2=O)cn1 (stereo not drawn) [A188, N-[2-(3,5-Difluorophenyl)ethyl]-1-(6-acetylaminopyridin-3-yl)-3-hydroxy-2-oxopyrrolidine-3-carboxamide] | 10 to 1000
15 | O=C(NCCc1cc(F)cc(Cl)c1)[C@@]1(O)CCN(c2ccc3[nH]ncc3c2)C1=O [A191, N-[2-(3-Chloro-5-fluorophenyl)-ethyl]-(S)-3-hydroxy-1-(1H-indazol-5-yl)-2-oxopyrrolidine-3-carboxamide] | 10 to 1000
16 | O=C(NCCc1cc(F)cc(Cl)c1)[C@]1(O)CCN(c2ccc3[nH]ncc3c2)C1=O [A192, N-[2-(3-Chloro-5-fluorophenyl)-ethyl]-(R)-3-hydroxy-1-(1H-indazol-5-yl)-2-oxopyrrolidine-3-carboxamide] | 1000 to 10000
17 | NC(=O)c1cccc(N2CCC(O)(C(=O)NCc3cccc(F)c3Cl)C2=O)c1 (stereo not drawn) [A193, N-(2-Chloro-3-fluorobenzyl)-1-(3-carbamoylphenyl)-3-hydroxy-2-oxopyrrolidine-3-carboxamide] | 10 to 1000
18 | CCNC(=O)c1cc2cc(N3CC[C@](O)(C(=O)NCc4cc(F)cc(Cl)c4)C3=O)ccc2o1 [A194, N-(3-Chloro-5-fluorobenzyl)-(S)-1-(2-ethylcarbamoylbenzofuran-5-yl)-3-hydroxy-2-oxopyrrolidine-3-carboxamide] | 10 to 1000

Now from value to compound:

Row | IC50 [nM] | Structure (SMILES)
19 | 10 to 1000 | CN(c1cccc(N2CC[C@](O)(C(=O)NCc3cc(F)cc(Cl)c3)C2=O)c1)S(C)(=O)=O [A165, N-(3-Chloro-5-fluorobenzyl)-(S)-3-hydroxy-1-[3-(methane-sulfonylmethylamino)phenyl]-2-oxopyrrolidine-3-carboxamide]
20 | 10 to 1000 | O=C1COCCN1c1ccc(N2CCC(O)(C(=O)NCc3cc(F)cc(Cl)c3)C2=O)cn1 (stereo not drawn) [A167, N-(3-Chloro-5-fluorobenzyl)-3-hydroxy-2-oxo-1-[6-(3-oxo-morpholin-4-yl)-pyridin-3-yl]-pyrrolidine-3-carboxamide]
21 | 10 to 1000 | O=C(NCCc1cc(F)cc(Cl)c1)C1(O)CCN(c2ccc3[nH]ncc3c2)C1=O (stereo not drawn) [A168]
22 | 10 to 1000 | O=C(NCc1cc(F)cc(Cl)c1)C1(O)CCN(c2cnn(-c3ccccc3)c2)C1=O (stereo not drawn) [A169, N-(3-Chloro-5-fluorobenzyl)-3-hydroxy-2-oxo-1-(1-phenyl-1H-pyrazol-4-yl)pyrrolidine-3-carboxamide]
23 | 10 to 1000 | CC(C)(C)OC(=O)N1CCC(n2cc(N3CCC(O)(C(=O)NCc4cc(F)cc(Cl)c4)C3=O)cn2)CC1 (stereo not drawn) [A170, tert-Butyl 4-{4-[3-(3-chloro-5-fluorobenzylcarbamoyl)-3-hydroxy-2-oxopyrrolidin-1-yl]-pyrazol-1-yl}-piperidine-1-carboxylate]
24 | 10 to 1000 | CCC(=O)Nc1ccc(N2CC[C@](O)(C(=O)NCc3cc(F)cc(Cl)c3)C2=O)cn1 [A171, N-(3-Chloro-5-fluorobenzyl)-(S)-3-hydroxy-2-oxo-1-(6-propionylaminopyridin-3-yl)-pyrrolidine-3-carboxamide]
25 | 10 to 1000 | O=C(NCc1cc(F)cc(Cl)c1)C1(O)CCN(c2ccc(N3CCOCC3)nc2)C1=O (stereo not drawn) [A173, N-(3-Chloro-5-fluorobenzyl)-3-hydroxy-1-(6-morpholin-4-yl-pyridin-3-yl)-2-oxopyrrolidine-3-carboxamide]
26 | 10 to 1000 | CC(=O)Nc1ccc(N2CCC(O)(C(=O)NCCc3cccc(F)c3)C2=O)cn1 (stereo not drawn) [A174, N-[2-(3-Fluorophenyl)ethyl]-1-(6-acetylaminopyridin-3-yl)-3-hydroxy-2-oxopyrrolidine-3-carboxamide]
27 | 10 to 1000 | CC(=O)Nc1ccc(N2CCC(O)(C(=O)NCCc3ccccc3F)C2=O)cn1 (stereo not drawn) [A175, N-[2-(2-Fluorophenyl)ethyl]-1-(6-acetylaminopyridin-3-yl)-3-hydroxy-2-oxopyrrolidine-3-carboxamide]
